Assay [1] has as its target Opioid Kappa Receptor (recombinant human, HEK293 cells) (Homo sapiens (Human), UniProt P41145). Put plainly: cell-based.
Assay [2] concerns the target recombinant human delta (DOR) opioid receptor (Homo sapiens (Human), UniProt P41143). Put plainly: Opioid receptor radioligand binding assay, DOR.
The target in assay [3] is recombinant human mu (MOR) opioid receptor (Homo sapiens (Human), UniProt P35372). Put plainly: Opioid receptor radioligand binding assay, MOR.
Assay [4] concerns the target recombinant human kappa (KOR) opioid receptor (Homo sapiens (Human), UniProt P41145). Put plainly: biochemical. The format is binding.
The mark [5] stands for this setting: HEK293 cell membranes, 0.5 nM [3H]diprenorphine.
[6] abbreviates: HEK293 cell membranes, 0.5 nM [3H]DADLE, read-out: DOR, IC50.
[7] abbreviates: HEK293 cell membranes, 0.5 nM [3H]DAMGO, read-out: MOR, IC50.

Like-named read-outs stand apart in the source and are kept apart here. Square brackets hold non-standard residues; d marks the D form. Peptide text beside a SMILES is read from it. * marks the point of attachment. Piperidin1yl(4-NH2,4-CO2Me) = COC(=O)C1(N)CCN(*)CC1; Pyrrolidinyl(3-NH2,3-CO2Me) = COC(=O)C1(N)CCN(*)C1; dAla(cPr) = N[C@H](CC1CC1)C(=O)O

Sequence of recombinant human delta (DOR) opioid receptor (P41143 whole entry, looked up): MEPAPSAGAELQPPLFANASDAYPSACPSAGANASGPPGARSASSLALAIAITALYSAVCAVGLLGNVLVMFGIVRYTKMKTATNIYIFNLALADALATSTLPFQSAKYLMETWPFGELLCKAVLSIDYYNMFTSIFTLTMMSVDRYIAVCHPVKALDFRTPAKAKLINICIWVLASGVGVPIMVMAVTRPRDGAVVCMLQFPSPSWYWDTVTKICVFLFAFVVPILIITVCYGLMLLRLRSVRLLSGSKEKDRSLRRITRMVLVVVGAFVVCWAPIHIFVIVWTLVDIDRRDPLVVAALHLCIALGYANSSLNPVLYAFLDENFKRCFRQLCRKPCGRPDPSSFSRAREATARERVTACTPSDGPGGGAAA

For `COC(=O)C1(N)CCN(C(=O)[C@@H](CCCCN)NC(=O)[C@@H](CC(C)C)NC(=O)[C@@H](Cc2ccccc2)NC(=O)[C@H](N)Cc2ccccc2)C1` (stereo partly drawn) [Compound 13-62], the EC50 in assay [1] (read-out: EC50) is 2.96 nM. The IC50 in assay [2] was over 10000 nM; in assay [3], over 10000 nM; in assay [4] (setting [5]), 0.2 nM.

`COC(=O)C1(N)CCN(C(=O)[C@@H](CCCNC(=N)N)NC(=O)[C@@H](CC2CC2)NC(=O)[C@@H](Cc2ccccc2)NC(=O)[C@H](N)Cc2ccccc2)CC1` [Compound 126] (H-[dF][dF][dAla(cPr)][dR]-{Piperidin1yl(4-NH2,4-CO2Me)}): the concentration for a half-maximal effect (EC50) in assay [1] (read-out: EC50) was 6.81 nM. The half-maximal inhibitory concentration (IC50) was over 10000 nM in assay [2] (setting [6]), 3030 nM in assay [3] (setting [7]) and 0.36 nM in assay [4] (setting [5]).

Turning to `COC(=O)C1(N)CCN(C(=O)[C@@H](CCCNC(=N)N)NC(=O)[C@@H](CC2CC2)NC(=O)[C@@H](Cc2ccccc2)NC(=O)[C@H](N)Cc2ccccc2)C1` (stereo partly drawn) [Compound 133] (H-[dF][dF][dAla(cPr)][dR]-{Pyrrolidinyl(3-NH2,3-CO2Me)}), the 50% effective concentration (EC50) in assay [1] (read-out: EC50) worked out at 9.64 nM. Further, the concentration for half-maximal inhibition (IC50) in assay [2] (setting [6]) was over 10000 nM; in assay [3] (setting [7]), over 10000 nM; in assay [4] (setting [5]), 1.3 nM.

For `CCOC(=O)N1CCN(C(=O)[C@@H](CCCCN)NC(=O)[C@@H](CC(C)C)NC(=O)[C@@H](Cc2ccccc2)NC(=O)[C@H](N)Cc2ccccc2)CC1` [Compound 13-47], in assay [1], the half-maximal effective concentration (EC50) is 4.84 nM. Besides, the 50% inhibitory concentration (IC50) in assay [2] (setting [6]) was over 10000 nM; in assay [3] (setting [7]), over 10000 nM; in assay [4], 0.27 nM.

Take `CNCCOC(=O)C1(N)CCN(C(=O)[C@@H](CCCCN)NC(=O)[C@@H](CC(C)C)NC(=O)[C@@H](Cc2ccccc2)NC(=O)[C@H](N)Cc2ccccc2)C1` (stereo partly drawn) [Compound 60]: the 50% effective concentration (EC50) in assay [1] (read-out: EC50) amounted to 7.19 nM. For the same compound, the concentration for half-maximal inhibition (IC50) in assay [2] (setting [6]) was over 10000 nM; in assay [3] (setting [7]), over 10000 nM; in assay [4] (setting [5]) it was 0.94 nM.

On to `CC(C)C[C@@H](NC(=O)[C@@H](Cc1ccccc1)NC(=O)[C@H](N)Cc1ccccc1)C(=O)N[C@H](CCCCN)C(=O)N(C)C[C@H](O)[C@@H](O)[C@H](O)[C@H](O)CO` [Compound 13-50], for which the half-maximal effective concentration (EC50) in assay [1] (read-out: EC50) was determined as 12.2 nM. Besides, the IC50 in assay [2] (setting [6]) is over 10000 nM; in assay [3] (setting [7]), 1110 nM; in assay [4] (setting [5]), 0.37 nM.

As to `CNC(=O)N1CCN(C(=O)[C@@H](CCCCN)NC(=O)[C@@H](CC(C)C)NC(=O)[C@@H](Cc2ccccc2)NC(=O)[C@H](N)Cc2ccccc2)CC1` [Compound 13-58], the EC50 in assay [1] (read-out: EC50) stood at 10.8 nM. The figures for the 50% inhibitory concentration (IC50) in assay [2] (setting [6]), in assay [3] (setting [7]) and in assay [4] (setting [5]) were over 10000 nM, over 10000 nM and 0.29 nM, respectively.

Turning to `CC(C)C[C@@H](NC(=O)[C@@H](Cc1ccccc1)NC(=O)[C@H](N)Cc1ccccc1)C(=O)N[C@H](CCCCN)C(=O)NC[C@H](N)C(=O)O` [Compound 13-13], the concentration for a half-maximal effect (EC50) in assay [1] (read-out: EC50) stood at 88.4 nM. Also, the IC50 in assay [2] (setting [6]) was over 10000 nM; in assay [3] (setting [7]), over 10000 nM; in assay [4] (setting [5]) it was 16.1 nM.

With `CC(C)C[C@@H](NC(=O)[C@@H](Cc1ccccc1)NC(=O)[C@H](N)Cc1ccccc1)C(=O)N[C@H](CCCCN)C(=O)NCc1ccc(O)c(O)c1` [Compound 13-10], in assay [1] (read-out: EC50), the EC50 is 23.1 nM. Moreover, the 50% inhibitory concentration (IC50) in assay [2] (setting [6]) was over 10000 nM; in assay [3] (setting [7]), over 10000 nM; in assay [4] (setting [5]) it was 0.67 nM.

On to `CC(C)C[C@@H](NC(=O)[C@@H](Cc1ccccc1)NC(=O)[C@H](N)Cc1ccccc1)C(=O)N[C@H](CCCCN)C(=O)N1CCC(NC(=O)CC[C@H](N)C(N)=O)CC1` [Compound 13-41], for which, in assay [1] (read-out: EC50), the EC50 stood at 9.12 nM. Besides, the 50% inhibitory concentration (IC50) in assay [2] (setting [6]) was over 10000 nM; in assay [3] (setting [7]), 8220 nM; in assay [4] (setting [5]) it was 0.21 nM.

Regarding `CC(C)C[C@@H](NC(=O)[C@@H](Cc1ccccc1)NC(=O)[C@H](N)Cc1ccccc1)C(=O)N[C@H](CCCCN)C(=O)N1CCN(C(=O)C(=O)NC2CC2)CC1` [Compound 13-23], in assay [1] (read-out: EC50), the EC50 came to 8.58 nM. Also, the IC50 is over 10000 nM in assay [2] (setting [6]), 318 nM in assay [3] (setting [7]) and 0.79 nM in assay [4] (setting [5]).

Turning to `CCNC(=O)C(=O)N1CCC(NC(=O)[C@@H](CCCCN)NC(=O)[C@@H](CC(C)C)NC(=O)[C@@H](Cc2ccccc2)NC(=O)[C@H](N)Cc2ccccc2)CC1` [Compound 13-36], the EC50 in assay [1] (read-out: EC50) worked out at 37.7 nM. The half-maximal inhibitory concentration (IC50) in assay [2] (setting [6]) is over 10000 nM; in assay [3] (setting [7]), over 10000 nM; in assay [4] (setting [5]), 0.49 nM.

With `CC(C)C[C@@H](NC(=O)[C@@H](Cc1ccccc1)NC(=O)[C@H](N)Cc1ccccc1)C(=O)N[C@H](CCCCN)C(=O)NCc1n[nH]c(=O)[nH]1` [Compound 13-45], the EC50 in assay [1] (read-out: EC50) was determined as 1.53 nM. Besides, the concentration for half-maximal inhibition (IC50) was over 10000 nM in assay [2], over 10000 nM in assay [3] and 0.43 nM in assay [4] (setting [5]).

For the compound `CNC(=O)C(=O)N1CCN(C(=O)[C@@H](CCCCN)NC(=O)[C@@H](CC(C)C)NC(=O)[C@@H](Cc2ccccc2)NC(=O)[C@H](N)Cc2ccccc2)CC1` [Compound 13-27], the EC50 in assay [1] (read-out: EC50) was found to be 12 nM. Also, the IC50 was over 10000 nM in assay [2] (setting [6]), over 10000 nM in assay [3] (setting [7]) and 0.53 nM in assay [4] (setting [5]).

Turning to `COC(=O)C1(N)CCN(C(=O)[C@@H](CCCCN)NC(=O)[C@@H](CC2CC2)NC(=O)[C@@H](Cc2ccccc2)NC(=O)[C@H](N)Cc2ccccc2)CC1` [Compound 112] (H-[dF][dF][dAla(cPr)][dK]-{Piperidin1yl(4-NH2,4-CO2Me)}), in assay [1] (read-out: EC50), the EC50 is 5.95 nM. Further, the IC50 is over 10000 nM in assay [2] (setting [6]), 15.2 nM in assay [3] (setting [7]) and 1 nM in assay [4] (setting [5]).

On to `COCCNC(=O)[C@@H](CCCCN)NC(=O)[C@@H](CC(C)C)NC(=O)[C@@H](Cc1ccccc1)NC(=O)[C@H](N)Cc1ccccc1` [Compound 13-2], for which the half-maximal effective concentration (EC50) in assay [1] (read-out: EC50) is 8.31 nM. Further, the concentration for half-maximal inhibition (IC50) in assay [2] (setting [6]) is over 10000 nM; in assay [3] (setting [7]), over 10000 nM; in assay [4] (setting [5]) it was 1.37 nM.

Consider `CC(C)C[C@@H](NC(=O)[C@@H](Cc1ccccc1)NC(=O)[C@H](N)Cc1ccccc1)C(=O)N[C@H](CCCCN)C(=O)N1CCC2(CC1)NC(=O)NC2=O` [Compound 71], for which, in assay [1] (read-out: EC50), the EC50 was found to be 5.4 nM. Also, the half-inhibitory concentration (IC50) was over 10000 nM in assay [2] (setting [6]); over 10000 nM in assay [3] (read-out: MOR, IC50); 0.16 nM in assay [4] (setting [5]).

In the case of `CC(C)C[C@@H](NC(=O)[C@@H](Cc1ccccc1)NC(=O)[C@H](N)Cc1ccccc1)C(=O)N[C@H](CCCCN)C(=O)N1CCC(NC(=O)C(=O)NC2CC2)CC1` [Compound 13-22], in assay [1] (read-out: EC50), the EC50 amounted to 24.8 nM. In addition, the results for the half-inhibitory concentration (IC50) in assay [2] (setting [6]), in assay [3] (setting [7]) and in assay [4] (setting [5]) were over 10000 nM, over 10000 nM and 0.096 nM, respectively.

As to `CC(C)C[C@@H](NC(=O)[C@@H](Cc1ccccc1)NC(=O)[C@H](N)Cc1ccccc1)C(=O)N[C@H](CCCCN)C(=O)NC1CCN(C(=O)C(N)=O)CC1` [Compound 13-34], in assay [1] (read-out: EC50), the EC50 came to 20.2 nM. In addition, the half-inhibitory concentration (IC50) in assay [2] (setting [6]) was over 10000 nM; in assay [3] (setting [7]) it was 2980 nM; in assay [4] (setting [5]), 3.33 nM.

For `CC(C)C[C@@H](NC(=O)[C@@H](Cc1ccccc1)NC(=O)[C@H](N)Cc1ccccc1)C(=O)N[C@H](CCCCN)C(=O)NCc1cccnc1C(=O)O` [Compound 13-7], in assay [1] (read-out: EC50), the concentration giving a half-maximal response (EC50) was determined as 24.7 nM. Further, the concentration for half-maximal inhibition (IC50) in assay [2] is over 10000 nM; in assay [3], over 10000 nM; in assay [4] (setting [5]) it was 11.4 nM.

Consider `CC(=O)N[C@@H](CCC(N)=O)C(=O)NC1CCN(C(=O)[C@@H](CCCCN)NC(=O)[C@@H](CC(C)C)NC(=O)[C@@H](Cc2ccccc2)NC(=O)[C@H](N)Cc2ccccc2)CC1` [Compound 13-56], for which the EC50 in assay [1] (read-out: EC50) stood at 16.7 nM. The IC50 in assay [2] is over 10000 nM; in assay [3], over 10000 nM; in assay [4] (setting [5]), 0.35 nM.

What is called EC50 is the midpoint of the concentration-response curve. By IC50 is commonly meant the concentration at which inhibition is half-maximal.

(Values after patent publication US12215173B2, “Kappa opioid receptor peptide amide ligands” (priority 2019, dated 2025).)
